Data taken from patent US9447092B2, “Pharmaceutically active compounds” (CANCER RESEARCH TECHNOLOGY LIMITED, priority 2012, dated 2016).
Where “and” joins values, the source holds several entries; their conditions need not be identical. Identical values can stand only once. Like-named read-outs stand apart in the source and are kept apart here.

How the values were obtained:
[1] = Human liver microsomal stability; type: in vitro ADME; conditions: human liver microsomes, after a 30 min incubation
Experimental: (§1) Compounds (10 μM) were incubated with mixed gender pooled human liver microsomes (1 mg·mL^−1) protein in the presence of NADPH (1 mM), UDPGA (2.5 mM) and MgCl2 (3 mM) in phosphate buffered saline (10 mM) at 37° C. Incubations were conducted for 0 and 30 minutes. Control incubations were generated by the omission of NADPH and UDPGA from the incubation reaction. The percentage compound remaining was determined after analysis by LCMS.

[2] = test system: SW620 human colon carcinoma xenograft; conditions: literature (ref 26); cited from earlier work
Aurora-A = Aurora-A (Homo sapiens (Human), UniProt O14965); conditions: read-out: Aurora-A IC50; biochemical assay
Aurora-A, sequence (O14965 whole entry): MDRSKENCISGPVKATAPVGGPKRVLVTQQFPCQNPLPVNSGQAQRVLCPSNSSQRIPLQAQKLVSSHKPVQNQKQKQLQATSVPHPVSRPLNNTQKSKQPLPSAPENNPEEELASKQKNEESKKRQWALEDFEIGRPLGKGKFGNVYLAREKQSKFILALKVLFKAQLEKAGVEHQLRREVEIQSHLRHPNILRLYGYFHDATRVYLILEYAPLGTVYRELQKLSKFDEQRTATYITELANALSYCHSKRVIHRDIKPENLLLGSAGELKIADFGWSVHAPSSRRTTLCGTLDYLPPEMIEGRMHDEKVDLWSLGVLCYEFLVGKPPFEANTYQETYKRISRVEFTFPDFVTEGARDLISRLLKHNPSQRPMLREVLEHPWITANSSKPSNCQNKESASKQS
Experimental: Aurora kinase assays: Aurora kinase IC50 values were determined as previously described.^26, 36

hERG [3] = molecular target: T1, hERG (Homo sapiens (Human), UniProt Q12809)
T1 sequence (Q12809 whole entry): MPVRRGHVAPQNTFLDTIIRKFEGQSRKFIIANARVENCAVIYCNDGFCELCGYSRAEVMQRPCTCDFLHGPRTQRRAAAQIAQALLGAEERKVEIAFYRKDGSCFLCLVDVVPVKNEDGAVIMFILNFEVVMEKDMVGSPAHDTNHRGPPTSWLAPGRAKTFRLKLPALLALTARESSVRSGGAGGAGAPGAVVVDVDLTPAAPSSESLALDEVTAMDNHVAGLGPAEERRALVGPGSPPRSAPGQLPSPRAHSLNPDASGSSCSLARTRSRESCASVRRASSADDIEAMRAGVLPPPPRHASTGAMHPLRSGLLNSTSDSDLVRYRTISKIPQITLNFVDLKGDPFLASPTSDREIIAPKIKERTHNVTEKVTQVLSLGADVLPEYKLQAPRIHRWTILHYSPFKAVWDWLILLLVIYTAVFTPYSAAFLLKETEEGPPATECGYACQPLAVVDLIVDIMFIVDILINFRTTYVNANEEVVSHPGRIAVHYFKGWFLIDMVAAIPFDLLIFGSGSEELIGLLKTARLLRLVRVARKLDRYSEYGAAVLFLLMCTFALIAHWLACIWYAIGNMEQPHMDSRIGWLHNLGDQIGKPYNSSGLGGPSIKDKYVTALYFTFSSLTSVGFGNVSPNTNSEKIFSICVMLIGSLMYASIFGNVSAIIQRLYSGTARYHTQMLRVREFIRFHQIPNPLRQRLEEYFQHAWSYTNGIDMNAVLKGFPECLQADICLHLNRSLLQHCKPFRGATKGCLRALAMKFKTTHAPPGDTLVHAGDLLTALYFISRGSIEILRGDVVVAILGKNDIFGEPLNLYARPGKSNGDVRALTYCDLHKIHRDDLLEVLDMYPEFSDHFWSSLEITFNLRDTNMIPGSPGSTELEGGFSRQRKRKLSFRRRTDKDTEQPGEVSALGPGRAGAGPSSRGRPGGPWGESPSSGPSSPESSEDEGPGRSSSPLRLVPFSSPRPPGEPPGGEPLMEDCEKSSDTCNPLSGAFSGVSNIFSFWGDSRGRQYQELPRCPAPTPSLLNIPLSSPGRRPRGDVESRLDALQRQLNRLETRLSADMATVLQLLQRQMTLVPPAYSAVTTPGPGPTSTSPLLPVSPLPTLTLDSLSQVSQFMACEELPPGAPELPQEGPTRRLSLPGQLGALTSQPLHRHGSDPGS

CYP1A2 = CYP1A2 (Homo sapiens (Human), UniProt P05177); assay: Inhibition of CYP isozymes in human liver microsomes, CYP1A2
CYP1A2, sequence (P05177 whole entry): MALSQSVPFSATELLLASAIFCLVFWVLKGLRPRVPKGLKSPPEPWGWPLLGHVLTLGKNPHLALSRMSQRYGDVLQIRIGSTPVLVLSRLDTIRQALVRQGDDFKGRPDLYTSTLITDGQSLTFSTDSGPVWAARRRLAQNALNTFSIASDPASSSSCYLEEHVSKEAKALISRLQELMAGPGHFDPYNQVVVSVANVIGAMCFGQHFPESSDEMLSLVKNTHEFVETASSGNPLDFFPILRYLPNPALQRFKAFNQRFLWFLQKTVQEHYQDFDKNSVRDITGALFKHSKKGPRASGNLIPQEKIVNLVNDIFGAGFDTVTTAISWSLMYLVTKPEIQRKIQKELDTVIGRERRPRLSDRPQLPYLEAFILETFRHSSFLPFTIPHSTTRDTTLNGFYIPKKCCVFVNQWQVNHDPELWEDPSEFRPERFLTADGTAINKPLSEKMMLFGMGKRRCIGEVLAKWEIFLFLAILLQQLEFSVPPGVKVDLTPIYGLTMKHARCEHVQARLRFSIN

CYP2A6 = CYP2A6 (Homo sapiens (Human), UniProt P11509); assay: Inhibition of CYP isozymes in human liver microsomes, CYP2A6; conditions: read-out: Estimated IC50 CYP2A6, probe Coumarin
CYP2A6, sequence (P11509 whole entry): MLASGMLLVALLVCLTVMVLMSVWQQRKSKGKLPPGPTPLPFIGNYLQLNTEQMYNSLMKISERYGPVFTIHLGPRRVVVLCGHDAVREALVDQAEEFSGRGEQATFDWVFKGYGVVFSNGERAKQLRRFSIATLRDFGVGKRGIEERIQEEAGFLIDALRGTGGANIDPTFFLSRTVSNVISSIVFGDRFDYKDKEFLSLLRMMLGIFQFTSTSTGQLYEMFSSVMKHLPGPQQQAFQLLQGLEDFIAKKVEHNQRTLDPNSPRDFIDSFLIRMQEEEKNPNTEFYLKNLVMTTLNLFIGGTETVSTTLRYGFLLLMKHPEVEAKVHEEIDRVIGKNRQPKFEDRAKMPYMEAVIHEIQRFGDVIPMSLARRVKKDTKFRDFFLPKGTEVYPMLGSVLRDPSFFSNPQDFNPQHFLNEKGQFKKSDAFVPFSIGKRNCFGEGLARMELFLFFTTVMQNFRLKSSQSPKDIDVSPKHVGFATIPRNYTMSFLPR

CYP2C9 = CYP2C9 (Homo sapiens (Human), UniProt P11712); assay: Inhibition of CYP isozymes in human liver microsomes, CYP2C9
CYP2C9, sequence (P11712 whole entry): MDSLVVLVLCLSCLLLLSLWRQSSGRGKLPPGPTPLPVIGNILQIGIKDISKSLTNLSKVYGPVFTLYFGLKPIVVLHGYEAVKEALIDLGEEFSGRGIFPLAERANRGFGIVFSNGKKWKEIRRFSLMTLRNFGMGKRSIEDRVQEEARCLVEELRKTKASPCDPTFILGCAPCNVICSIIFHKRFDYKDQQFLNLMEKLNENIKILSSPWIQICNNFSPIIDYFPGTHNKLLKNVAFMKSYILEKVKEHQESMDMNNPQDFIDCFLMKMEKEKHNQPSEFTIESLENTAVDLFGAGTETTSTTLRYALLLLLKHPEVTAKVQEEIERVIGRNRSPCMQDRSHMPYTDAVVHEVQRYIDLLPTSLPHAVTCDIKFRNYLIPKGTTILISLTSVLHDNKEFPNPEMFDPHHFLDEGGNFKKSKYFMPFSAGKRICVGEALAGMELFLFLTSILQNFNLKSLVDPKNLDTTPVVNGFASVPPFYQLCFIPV

CYP2D6 = CYP2D6 (Homo sapiens (Human), UniProt P10635); assay: Inhibition of CYP isozymes in human liver microsomes, CYP2D6
CYP2D6, sequence (P10635 whole entry): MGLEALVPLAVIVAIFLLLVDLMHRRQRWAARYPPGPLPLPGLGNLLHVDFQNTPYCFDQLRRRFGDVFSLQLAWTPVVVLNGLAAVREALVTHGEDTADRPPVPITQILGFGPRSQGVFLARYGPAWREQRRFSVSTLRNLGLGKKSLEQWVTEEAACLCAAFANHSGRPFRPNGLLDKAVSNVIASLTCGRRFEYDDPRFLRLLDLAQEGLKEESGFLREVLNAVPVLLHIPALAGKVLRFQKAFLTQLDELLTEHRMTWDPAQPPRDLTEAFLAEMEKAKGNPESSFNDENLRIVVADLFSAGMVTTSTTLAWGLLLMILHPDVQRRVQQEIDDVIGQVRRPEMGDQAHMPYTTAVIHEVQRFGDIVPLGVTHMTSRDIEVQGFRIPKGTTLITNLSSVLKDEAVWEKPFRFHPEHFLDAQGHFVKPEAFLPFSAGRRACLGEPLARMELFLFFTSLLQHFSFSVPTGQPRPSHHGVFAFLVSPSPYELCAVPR

CYP3A4 = CYP3A4 (Homo sapiens (Human), UniProt P08684); assay: Inhibition of CYP isozymes in human liver microsomes, CYP3A4; conditions: read-out: Estimated IC50 CYP3A4, probe Midazolam
CYP3A4, sequence (P08684 whole entry): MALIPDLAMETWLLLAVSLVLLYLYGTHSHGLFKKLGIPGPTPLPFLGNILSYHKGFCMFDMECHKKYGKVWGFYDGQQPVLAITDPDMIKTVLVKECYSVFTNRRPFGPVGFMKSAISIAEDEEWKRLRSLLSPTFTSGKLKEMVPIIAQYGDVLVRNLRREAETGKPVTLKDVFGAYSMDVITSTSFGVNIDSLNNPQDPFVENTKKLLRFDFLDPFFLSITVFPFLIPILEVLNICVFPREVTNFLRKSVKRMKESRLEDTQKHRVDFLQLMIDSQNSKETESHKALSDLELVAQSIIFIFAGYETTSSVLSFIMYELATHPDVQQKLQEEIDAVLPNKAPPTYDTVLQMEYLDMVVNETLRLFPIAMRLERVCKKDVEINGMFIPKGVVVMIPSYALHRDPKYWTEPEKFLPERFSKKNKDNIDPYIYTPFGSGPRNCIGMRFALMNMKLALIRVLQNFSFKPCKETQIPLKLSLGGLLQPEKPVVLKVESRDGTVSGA

CYP2C19 = CYP2C19 (Homo sapiens (Human), UniProt P33261); assay: Inhibition of CYP isozymes in human liver microsomes, CYP2C19
CYP2C19, sequence (P33261 whole entry): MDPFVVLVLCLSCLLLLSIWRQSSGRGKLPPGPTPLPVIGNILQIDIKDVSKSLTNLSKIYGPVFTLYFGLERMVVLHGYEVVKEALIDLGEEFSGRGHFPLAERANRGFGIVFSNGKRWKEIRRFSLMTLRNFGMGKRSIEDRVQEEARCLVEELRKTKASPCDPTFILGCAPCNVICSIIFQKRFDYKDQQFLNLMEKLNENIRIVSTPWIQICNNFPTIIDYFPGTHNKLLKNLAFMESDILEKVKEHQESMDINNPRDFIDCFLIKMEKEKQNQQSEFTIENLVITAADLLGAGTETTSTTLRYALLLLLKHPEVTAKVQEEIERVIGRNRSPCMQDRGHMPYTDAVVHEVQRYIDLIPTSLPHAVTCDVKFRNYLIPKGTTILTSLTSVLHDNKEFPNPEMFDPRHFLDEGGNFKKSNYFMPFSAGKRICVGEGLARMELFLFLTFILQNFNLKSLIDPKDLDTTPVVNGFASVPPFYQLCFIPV

[4] = Mouse liver microsomal stability; type: in vitro ADME; conditions: mouse liver microsomes, after a 30 min incubation
Experimental: as §1, with “male CD1 mouse” for “mixed gender pooled human”

Log D measurement = type: physicochemical; conditions: pH 7.4, experimentally determined value
Experimental: Physicochemical properties: Log D and pKa measurements were performed by Pharmorphix® Solid State Services, Member of the Sigma-Aldrich Group, Cambridge, UK.

[5] = test system: 442-kinase panel (386 non-mutant kinases); assay: KINOMEScan kinase selectivity profiling, 442-kinase panel; type: binding; conditions: 1 μM; >90% competition
Experimental: (§2) Kinase selectivity profiling: Kinase profiling using the KINOMEScan™ technology and Kd determinations were performed by KINOMEscan, a Division of DiscoveRx Corporation, San Diego, Calif., USA; www.kinomescan.com.

Aurora-B = Aurora-B (Homo sapiens (Human), UniProt Q96GD4); assay: KINOMEScan Aurora-B; type: binding; conditions: read-out: % control Aurora-B
Aurora-B, sequence (Q96GD4 whole entry): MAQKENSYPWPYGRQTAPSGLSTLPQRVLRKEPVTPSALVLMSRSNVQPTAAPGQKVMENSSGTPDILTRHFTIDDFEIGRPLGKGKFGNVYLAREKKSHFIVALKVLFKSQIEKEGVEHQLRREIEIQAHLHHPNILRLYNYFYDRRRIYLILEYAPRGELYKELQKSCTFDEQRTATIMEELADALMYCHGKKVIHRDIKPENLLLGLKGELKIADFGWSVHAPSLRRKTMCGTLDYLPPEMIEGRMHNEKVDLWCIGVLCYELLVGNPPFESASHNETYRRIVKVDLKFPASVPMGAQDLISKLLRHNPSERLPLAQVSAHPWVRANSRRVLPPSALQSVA
Experimental: as §2

FLT3 = FLT3 (Homo sapiens (Human), UniProt P36888); assay: KINOMEScan FLT3; type: binding; conditions: 1 μM primary screening
Experimental: as §2

FLT3(D835H) = FLT3(D835H) (Homo sapiens (Human), UniProt P36888, D835H); assay: KINOMEScan FLT3(D835H); type: binding; conditions: 1 μM primary screening
Experimental: as §2

FLT3(D835Y) = FLT3(D835Y) (Homo sapiens (Human), UniProt P36888, D835Y); assay: KINOMEScan FLT3(D835Y); type: binding; conditions: 1 μM primary screening
Experimental: as §2

FLT3-ITD = FLT3-ITD (Homo sapiens, UniProt P36888); assay: KINOMEScan FLT3-ITD; type: binding; conditions: 1 μM primary screening
Experimental: as §2

[6] = test system: HCT116 human colon carcinoma; assay: Cell viability assay, HCT116; type: cell-based; conditions: HCT-116
[7] = test system: MV4-11 human tumour xenografts; assay: Human tumour xenograft efficacy study (MV4-11); type: in vivo
Description: Brit J Cancer 102: 1555-1577, 2010.

[8] = test system: histone H-3 phosphorylation at S10; assay: 4-day PK/PD study: histone H-3 phosphorylation in MV4-11 xenografts; type: in vivo, mouse; conditions: 50 and 100 mg/kg oral twice daily, 4 days
Experimental: (§3) Tumour samples were obtained 2 h after the final dose. Total histone H3, total Stat5 and GAPDH were used as loading controls.

[9] = test system: phosphorylation of STAT5 at Y694; assay: 4-day PK/PD study: STAT5 phosphorylation in MV4-11 xenografts; type: in vivo, mouse; conditions: 50 and 100 mg/kg oral twice daily, 4 days
Experimental: as §3

hERG [10] = molecular target: T1, hERG; assay: hERG inhibition (cell-based electrophysiology, hERG tail current)

Which “HLM: Percentage of parent compound metabolised” value (“HLM: Percentage” below) [1] does the source give for `Cc1cc(CN2CCN(c3c(Br)cnc4nc(-c5ccc(N6CCN(C)CC6)cc5)[nH]c34)CC2)no1` [CCT137690, reference compound] here?
The value was 86%.

And the “growth of a SW620 human colon carcinoma xenograft in vivo” value [2]?
The value was “inhibits the growth”.

For `Cn1cc(-c2nc3c(N4CCN(Cc5cccnc5)CC4)c(Br)cnc3[nH]2)cn1` [Comparator 1, 6-bromo-2-(1-methyl-1H-pyrazol-4-yl)-7-(4-(pyridine-3-ylmethyl)piperazin-1-yl)-3H-imidazo[4,5-b]pyridine], which IC50 (Aurora-A) is on record?
The IC50 was 0.032 µM.

What about the IC50 (hERG [3]) of the same molecule?
Its IC50 is 5.5 µM.

And the IC50 (CYP1A2)?
Its IC50 is 10 to 50 µM.

What about the IC50 (CYP2A6) of the same molecule?
The IC50 was > 50 µM.

What about the IC50 (CYP2C9) of the same molecule?
The IC50 was 10 to 50 µM.

And the IC50 (CYP2D6)?
Its IC50 is 1 to 10 µM.

And the IC50 (CYP3A4)?
The IC50 was < 1 µM.

And the IC50 (CYP2C19)?
The IC50 was 10 to 50 µM.

For `Cc1nn(C)c(C)c1-c1nc2c(N3CCN(Cc4cccnc4)CC3)c(Br)cnc2[nH]1` [Comparator 2, 6-bromo-7-(4-(pyridine-3-ylmethyl)piperazin-1-yl)-2-(1,3,5-trimethyl-1H-pyrazol-4-yl)-3H-imidazo[4,5-b]pyridine], which IC50 (Aurora-A) is on record?
Its IC50 is 0.3 µM.

And the IC50 (hERG [3])?
The IC50 was 10.8 µM.

And the IC50 (CYP2A6)?
The IC50 was > 50 µM.

What about the IC50 (CYP2C9) of the same molecule?
Its IC50 is 10 to 50 µM.

And the IC50 (CYP2D6)?
Its IC50 is 10 to 50 µM.

And the IC50 (CYP3A4)?
Its IC50 is < 1 µM.

What about the IC50 (CYP2C19) of the same molecule?
The IC50 was 10 to 50 µM.

For `Cc1nn(C)cc1-c1nc2c(N3CCN(Cc4ccc(Cl)cc4)CC3)c(Cl)cnc2[nH]1` [Example 1, 6-Chloro-7-(4-(4-chlorobenzyl)piperazin-1-yl)-2-(1,3-dimethyl-1H-pyrazol-4-yl)-3H-imidazo[4,5-b]pyridine], which “MLM: Percentage of parent compound metabolised” value [4] is on record?
The value was 34%.

And the “HLM: Percentage” value [1]?
Its value is 10%.

And the LogD7.4 (Log D measurement)?
The LogD7.4 was “^cLogD7.4 = 3.84 (experimentally determined value)”.

And the “hits from the 386 non-mutant kinases tested” value [5]?
Its value is 22.

What about the remaining binding at 1 µM (Aurora-B) of the same molecule?
Its remaining binding at 1 µM is 1%.

And the “competition for FLT3 kinase” value (FLT3)?
Its value is “greater than 94%”.

What about the “competition for FLT3(D835H)” value (FLT3(D835H)) of the same molecule?
The value was “greater than 94%”.

What about the “competition for FLT3(D835Y)” value (FLT3(D835Y)) of the same molecule?
Its value is “greater than 94%”.

What about the “competition for FLT3-ITD” value (FLT3-ITD) of the same molecule?
The value was “greater than 94%”.

What about the GI50 [6] of the same molecule?
The GI50 was 0.3 µM.

What about the “day single mice were culled (mean tumour volume increased by over 500%)” value ([7]; 50 mg/kg) of the same molecule?
The value was 28 days and 31 days.

And the “tumour volume, % of the initial volume after 11 days” value ([7]; 50 mg/kg dosing schedule)?
Its value is 42%.

And the “day single mice were culled (mean tumour volume increased by over 500%)” value ([7]; 100 mg/kg)?
The value was 46 days and 56 days.

What about the “tumours when therapy was discontinued after 11 days” value ([7]; 100 mg/kg dosing schedule) of the same molecule?
The value was “undetectable”.

What about the “toxicity as defined by body weight loss” value ([7]; athymic mice, oral 50 and 100 mg/kg) of the same molecule?
The value was “no observed toxicity”.

What about the “growth of MV4-11 human tumour xenografts” value ([7]; athymic mice, oral 50 and 100 mg/kg, dose dependent) of the same molecule?
Its value is “strongly inhibited the growth”.

And the “mice that failed to develop progressively growing tumours” value ([7]; each treatment group (50 and 100 mg/kg), study terminated on day 60)?
Its value is 60%.

And the “histone H-3 phosphorylation” value [8]?
The value was “clear inhibition”.

And the STAT5 phosphorylation [9]?
Its STAT5 phosphorylation is “inhibition of STAT5 phosphorylation”.

And the IC50 (hERG [3])?
Its IC50 is > 25 µM.

What about the Vd (In vivo full PK in mouse; female, Balb/C, plasma, 5 mg/kg) of the same molecule?
Its Vd is 0.066 L and ~3.3 L/kg.

What about the clearance (In vivo full PK in mouse; female, Balb/C, plasma, iv, 5 mg/kg) of the same molecule?
Its clearance is 0.967 mL/min.

What about the “AUCinf, (iv)” value (In vivo full PK in mouse; iv 5 mg/kg) of the same molecule?
The value was 3.753 µM·h.

What about the “Cl, (iv)” value (In vivo full PK in mouse; iv 5 mg/kg) of the same molecule?
The value was 0.058 L/h.

And the “t½, (iv)” value (In vivo full PK in mouse; iv 5 mg/kg)?
Its value is 50.4 min.

And the “F % (po)” value (In vivo full PK in mouse; oral 5 mg/kg)?
Its value is 100%.

And the IC50 (CYP2A6)?
Its IC50 is > 50 µM.

What about the IC50 (CYP3A4) of the same molecule?
Its IC50 is > 50 µM.

What does the source list for `Cc1nn(C)cc1-c1nc2c(N3CCN(Cc4ncon4)CC3)c(Cl)cnc2[nH]1` [Example 2, 3-((4-(6-Chloro-2-(1,3-dimethyl-1H-pyrazol-4-yl)-3H-imidazo[4,5-b]pyridin-7-yl)piperazin-1-yl)methyl)-1,2,4-oxadiazole]?
MLM: Percentage of parent compound metabolised [4]: 67%; HLM: Percentage of parent compound metabolised [1]: 22%; IC50 (CYP3A4): > 50 µM

Which “MLM: Percentage of parent compound metabolised” value [4] does the source give for `Cc1nc(CN2CCN(c3c(Cl)cnc4[nH]c(-c5cn(C)nc5C)nc34)CC2)no1` [Example 3, 3-((4-(6-Chloro-2-(1,3-dimethyl-1H-pyrazol-4-yl)-3H-imidazo[4,5-b]pyridin-7-yl)piperazin-1-yl)methyl)-5-methyl-1,2,4-oxadiazole] here?
Its value is 58%.

And the “HLM: Percentage” value [1]?
Its value is 20%.

What about the IC50 (CYP2A6) of the same molecule?
Its IC50 is > 50 µM.

What about the IC50 (CYP3A4) of the same molecule?
Its IC50 is > 50 µM.

And the IC50 (CYP2C19)?
The IC50 was > 50 µM.

And the IC50 (hERG [10])?
The IC50 was 9.5 µM.
